In patent US20230265151A1, “GIP/GLP1 CO-AGONIST COMPOUNDS” (priority 2020, published 2023):
Where two headings read alike, the source gives them in different places. *1 amine or outer side, *2 acyl side, *3 side chain or, on linkers, in order; H or OH if unused. Where a SMILES comes first, the peptide text is derived from it. Side-chain parts run from the residue outwards. [ ]: non-standard residue; d: D form. The star is where a group is joined. Decanoyl(10-(4-HOOC-PhO)) = O=C(O)c1ccc(OCCCCCCCCCC(=O)*)cc1; αMePhe(2-F) = C[C@](N)(Cc1ccccc1F)C(=O)O; γGlu = O=C(O)[C@H](CCC(=O)[*:2])N[*:1]; αMeY = C[C@](N)(Cc1ccc(O)cc1)C(=O)O; αMeL = CC(C)C[C@](C)(N)C(=O)O; Orn = NCCC[C@H](N)C(=O)O; AEEA = NCCOCCOCC(=O)O; Aib = CC(C)(N)C(=O)O

Assays:
Type in all cases: cell-based
hGIPR = biological target: T1, hGIPR (Homo sapiens, UniProt P48546); experiment: Functional cAMP formation (HTRF) in HEK-293 clonal cells expressing hGIPR, 0.1% bovine casein, without or with 1.0% human serum albumin; conditions: for EC50: hGIPR EC50, nM (SEM, n), cAMP, incubated at 37° C., 0.1% bovine casein (no human serum albumin), geometric mean
T1 construct: expressed in transfected cells
T1 sequence (P48546 22-466): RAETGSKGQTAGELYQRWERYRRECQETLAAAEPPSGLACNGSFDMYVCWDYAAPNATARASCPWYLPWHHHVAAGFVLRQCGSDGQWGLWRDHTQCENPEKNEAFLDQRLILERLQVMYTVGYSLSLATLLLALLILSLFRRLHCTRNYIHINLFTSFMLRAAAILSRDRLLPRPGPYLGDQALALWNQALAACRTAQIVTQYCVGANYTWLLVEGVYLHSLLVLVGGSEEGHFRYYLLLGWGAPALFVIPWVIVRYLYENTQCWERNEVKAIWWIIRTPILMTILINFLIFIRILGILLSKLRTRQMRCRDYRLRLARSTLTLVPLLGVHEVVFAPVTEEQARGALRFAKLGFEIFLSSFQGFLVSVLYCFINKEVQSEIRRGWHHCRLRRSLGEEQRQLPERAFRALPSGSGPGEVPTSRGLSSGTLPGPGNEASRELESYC
Method in brief: (§1)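 Readings of the HTRF 665/620 nm ratio, which falls as cAMP rises, were converted to nM cAMP using a standard curve after 30 min peptide exposure at 37° C.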

hGCGR = biological target: T2, hGCGR (Homo sapiens, UniProt P47871); experiment: Functional cAMP formation (HTRF) in HEK-293 clonal cells expressing hGCGR, 0.1% bovine casein, without or with 1.0% human serum albumin; conditions: hGCGR EC50, nM (SEM, n), geometric mean
T2 construct: expressed in transfected cells
T2 sequence (P47871 26-477): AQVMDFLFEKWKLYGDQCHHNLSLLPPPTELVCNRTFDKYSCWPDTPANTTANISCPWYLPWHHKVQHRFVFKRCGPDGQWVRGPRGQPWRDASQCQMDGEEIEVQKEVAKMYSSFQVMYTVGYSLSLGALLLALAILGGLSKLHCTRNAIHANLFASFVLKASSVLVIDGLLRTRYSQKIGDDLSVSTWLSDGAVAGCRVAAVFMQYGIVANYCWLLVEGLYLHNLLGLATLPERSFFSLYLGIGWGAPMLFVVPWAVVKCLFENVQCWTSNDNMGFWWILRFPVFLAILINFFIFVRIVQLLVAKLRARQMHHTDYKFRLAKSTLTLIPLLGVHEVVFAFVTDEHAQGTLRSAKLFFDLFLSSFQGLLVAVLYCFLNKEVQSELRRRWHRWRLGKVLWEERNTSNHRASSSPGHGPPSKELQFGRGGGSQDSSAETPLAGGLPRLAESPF
Method in brief: as §1

hGLP-1R = hGLP-1R (Homo sapiens, UniProt P43220); experiment: Functional cAMP formation (HTRF) in HEK-293 clonal cells expressing hGLP-1R, 0.1% bovine casein, without or with 1.0% human serum albumin; design: expressed in transfected cells; conditions: for EC50: hGLP-1R EC50, nM (SEM, n), geometric mean
hGLP-1R, sequence (P43220 24-463): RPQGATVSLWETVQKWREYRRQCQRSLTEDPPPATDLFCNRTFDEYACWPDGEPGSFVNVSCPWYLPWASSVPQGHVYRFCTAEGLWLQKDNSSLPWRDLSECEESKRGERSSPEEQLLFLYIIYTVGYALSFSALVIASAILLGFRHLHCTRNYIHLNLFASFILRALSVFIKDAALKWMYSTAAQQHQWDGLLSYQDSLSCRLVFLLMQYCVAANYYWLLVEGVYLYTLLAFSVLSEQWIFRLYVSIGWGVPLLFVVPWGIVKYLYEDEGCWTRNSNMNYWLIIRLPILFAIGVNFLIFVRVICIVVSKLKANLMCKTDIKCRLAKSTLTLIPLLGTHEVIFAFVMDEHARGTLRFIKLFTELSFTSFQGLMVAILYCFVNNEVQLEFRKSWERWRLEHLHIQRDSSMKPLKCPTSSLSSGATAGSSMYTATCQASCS
Method in brief: as §1

[1] = HEK293, read-out: hGIPR Emax, % ± SEM, 0.1% bovine casein and 1.0% human serum albumin, 37° C., percent of maximal response to GIP(1-42)NH2
[2] = 0.1% bovine casein and 1.0% human serum albumin, 37° C.
[3] = cAMP, incubated at 37° C., 0.1% bovine casein (no human serum albumin)
[4] = HEK293, read-out: hGLP-1R Emax, % ± SEM, 0.1% bovine casein and 1.0% human serum albumin, 37° C., percent of maximal response to GLP-1(7-36)NH2
[5] = HEK293, read-out: hGLP-1R Emax, % ± SEM, percent of maximal response to GLP-1(7-36)NH2, 37° C., 0.1% bovine casein, arithmetic mean

SMILES	Emax (hGIPR; [1]) [%]	EC50 (hGIPR) [nM]	EC50 (hGCGR; [2]) [nM]	EC50 (hGCGR; [3]) [nM]	Emax (hGLP-1R; [4]) [%]	EC50 (hGLP-1R; [3]) [nM]	EC50 (hGLP-1R; [2]) [nM]	Emax (hGLP-1R; [5]) [%]	Emax (hGIPR; HEK293, read-out: hGIPR Emax, % ± SEM, percent of maximal response to GIP(1-42)NH2, 37° C., 0.1% bovine casein, arithmetic mean) [%]
CC[C@H](C)[C@H](NC(=O)[C@H](CC(C)C)NC(=O)[C@](C)(Cc1ccc(O)cc1)NC(=O)[C@@H](CCC(=O)O)NC(=O)[C@@H](NC(=O)[C@H](Cc1ccccc1)NC(=O)[C@H](CCC(=O)O)NC(=O)C(C)(C)NC(=O)[C@H](CCC(N)=O)NC(=O)[C@H](C)NC(=O)[C@H](CCCCNC(=O)COCCOCCNC(=O)COCCOCCNC(=O)CC[C@H](NC(=O)CCCCCCCCCOc1ccc(C(=O)O)cc1)C(=O)O)NC(=O)[C@H](CCCN)NC(=O)[C@H](CC(=O)O)NC(=O)[C@H](CC(C)C)NC(=O)[C@](C)(CC(C)C)NC(=O)[C@@H](NC(=O)C(C)(C)NC(=O)[C@H](Cc1ccc(O)cc1)NC(=O)[C@H](CC(=O)O)NC(=O)[C@H](CO)NC(=O)[C@@H](NC(=O)[C@](C)(Cc1ccccc1F)NC(=O)[C@@H](NC(=O)CNC(=O)[C@H](CCC(=O)O)NC(=O)C(C)(C)NC(=O)[C@@H](N)Cc1ccc(O)cc1)[C@@H](C)O)[C@@H](C)O)[C@@H](C)CC)[C@@H](C)CC)C(=O)N[C@@H](CCCCNC(=O)COCCOCCNC(=O)COCCOCCNC(=O)CC[C@H](NC(=O)CCCCCCCCCOc1ccc(C(=O)O)cc1)C(=O)O)C(=O)NCC(=O)NCC(=O)N1CCC[C@H]1C(=O)N[C@@H](CO)C(=O)N[C@@H](CO)C(=O)NCC(=O)N[C@@H](C)C(=O)N1CCC[C@H]1C(=O)N1CCC[C@H]1C(=O)N1CCC[C@H]1C(=O)N[C@@H](CO)C(N)=O [Example 237]	93.1	0.0186	> 9950	> 9950	113	0.633	–	–	–
CC[C@H](C)[C@H](NC(=O)[C@H](CC(C)C)NC(=O)[C@](C)(Cc1ccc(O)cc1)NC(=O)[C@@H](CCC(=O)O)NC(=O)[C@@H](NC(=O)[C@H](Cc1ccccc1)NC(=O)[C@H](CCC(=O)O)NC(=O)C(C)(C)NC(=O)[C@H](CCC(N)=O)NC(=O)[C@H](C)NC(=O)[C@H](CCCCNC(=O)COCCOCCNC(=O)COCCOCCNC(=O)CC[C@H](NC(=O)CCCCCCCCCOc1ccc(C(=O)O)cc1)C(=O)O)NC(=O)[C@H](CCCN)NC(=O)[C@H](CC(=O)O)NC(=O)[C@H](CC(C)C)NC(=O)[C@](C)(CC(C)C)NC(=O)[C@@H](NC(=O)C(C)(C)NC(=O)[C@H](Cc1ccc(O)cc1)NC(=O)[C@H](CC(=O)O)NC(=O)[C@H](CO)NC(=O)[C@@H](NC(=O)[C@](C)(Cc1ccccc1F)NC(=O)[C@@H](NC(=O)CNC(=O)[C@H](CCC(=O)O)NC(=O)C(C)(C)NC(=O)[C@@H](N)Cc1ccc(O)cc1)[C@@H](C)O)[C@@H](C)O)[C@@H](C)CC)[C@@H](C)CC)C(=O)N[C@@H](CCC(=O)O)C(=O)NCC(=O)NCC(=O)N1CCC[C@H]1C(=O)N[C@@H](CO)C(=O)N[C@@H](CO)C(=O)NCC(=O)N[C@@H](C)C(=O)N1CCC[C@H]1C(=O)N1CCC[C@H]1C(=O)N1CCC[C@H]1C(=O)N[C@@H](CO)C(=O)N[C@@H](CCCCNC(=O)COCCOCCNC(=O)COCCOCCNC(=O)CC[C@H](NC(=O)CCCCCCCCCOc1ccc(C(=O)O)cc1)C(=O)O)C(N)=O [Example 238]	90.5	0.0214	> 9950	> 9950	–	1.03	27.2	–	–
CC[C@H](C)[C@H](NC(=O)[C@H](CCCN)NC(=O)[C@H](CC(=O)O)NC(=O)[C@H](CC(C)C)NC(=O)[C@](C)(CC(C)C)NC(=O)[C@@H](NC(=O)C(C)(C)NC(=O)[C@H](Cc1ccc(O)cc1)NC(=O)[C@H](CC(=O)O)NC(=O)[C@H](CO)NC(=O)[C@@H](NC(=O)[C@](C)(Cc1ccccc1F)NC(=O)[C@@H](NC(=O)CNC(=O)[C@H](CCC(=O)O)NC(=O)C(C)(C)NC(=O)[C@@H](N)Cc1ccc(O)cc1)[C@@H](C)O)[C@@H](C)O)[C@@H](C)CC)C(=O)N[C@@H](C)C(=O)N[C@@H](CCC(N)=O)C(=O)NC(C)(C)C(=O)N[C@@H](CCC(=O)O)C(=O)N[C@@H](Cc1ccccc1)C(=O)N[C@H](C(=O)N[C@@H](CCCCNC(=O)COCCOCCNC(=O)COCCOCCNC(=O)CC[C@H](NC(=O)CCCCCCCCCOc1ccc(C(=O)O)cc1)C(=O)O)C(=O)N[C@@](C)(Cc1ccc(O)cc1)C(=O)N[C@@H](CC(C)C)C(=O)N[C@H](C(=O)N[C@@H](CCCCNC(=O)COCCOCCNC(=O)COCCOCCNC(=O)CC[C@H](NC(=O)CCCCCCCCCOc1ccc(C(=O)O)cc1)C(=O)O)C(=O)NCC(=O)NCC(=O)N1CCC[C@H]1C(=O)N[C@@H](CO)C(=O)N[C@@H](CO)C(=O)NCC(=O)N[C@@H](C)C(=O)N1CCC[C@H]1C(=O)N1CCC[C@H]1C(=O)N1CCC[C@H]1C(=O)N[C@@H](CO)C(N)=O)[C@@H](C)CC)[C@@H](C)CC [Example 239]	89.1	0.0328	> 9950	> 9950	109	0.546	–	–	–
CC[C@H](C)[C@H](NC(=O)[C@H](CCCN)NC(=O)[C@H](CC(=O)O)NC(=O)[C@H](CC(C)C)NC(=O)[C@](C)(CC(C)C)NC(=O)[C@@H](NC(=O)C(C)(C)NC(=O)[C@H](Cc1ccc(O)cc1)NC(=O)[C@H](CC(=O)O)NC(=O)[C@H](CO)NC(=O)[C@@H](NC(=O)[C@](C)(Cc1ccccc1F)NC(=O)[C@@H](NC(=O)CNC(=O)[C@H](CCC(=O)O)NC(=O)C(C)(C)NC(=O)[C@@H](N)Cc1ccc(O)cc1)[C@@H](C)O)[C@@H](C)O)[C@@H](C)CC)C(=O)N[C@@H](C)C(=O)N[C@@H](CCC(N)=O)C(=O)NC(C)(C)C(=O)N[C@@H](CCCCNC(=O)COCCOCCNC(=O)COCCOCCNC(=O)CC[C@H](NC(=O)CCCCCCCCCOc1ccc(C(=O)O)cc1)C(=O)O)C(=O)N[C@@H](Cc1ccccc1)C(=O)N[C@H](C(=O)N[C@H](CCC(=O)O)C(=O)N[C@@](C)(Cc1ccc(O)cc1)C(=O)N[C@@H](CC(C)C)C(=O)N[C@H](C(=O)N[C@@H](CCCCNC(=O)COCCOCCNC(=O)COCCOCCNC(=O)CC[C@H](NC(=O)CCCCCCCCCOc1ccc(C(=O)O)cc1)C(=O)O)C(=O)NCC(=O)NCC(=O)N1CCC[C@H]1C(=O)N[C@@H](CO)C(=O)N[C@@H](CO)C(=O)NCC(=O)N[C@@H](C)C(=O)N1CCC[C@H]1C(=O)N1CCC[C@H]1C(=O)N1CCC[C@H]1C(=O)N[C@@H](CO)C(N)=O)[C@@H](C)CC)[C@@H](C)CC [Example 240] (H-Y[Aib]EGT[αMePhe(2-F)]TSDY[Aib]I[αMeL]LD[Orn]IAQ[Aib]K([AEEA-AEEA-γGlu-Decanoyl(10-(4-HOOC-PhO))])FI[dE][αMeY]LIK([AEEA-AEEA-γGlu-Decanoyl(10-(4-HOOC-PhO))])GGPSSGAPPPS-NH2)	87.2	0.0237	> 9950	> 9950	–	0.508	150	98.5	–
CC[C@H](C)[C@H](NC(=O)[C@H](CCCN)NC(=O)[C@H](CC(=O)O)NC(=O)[C@H](CC(C)C)NC(=O)[C@](C)(CC(C)C)NC(=O)[C@@H](NC(=O)C(C)(C)NC(=O)[C@H](Cc1ccc(O)cc1)NC(=O)[C@H](CC(=O)O)NC(=O)[C@H](CO)NC(=O)[C@@H](NC(=O)[C@](C)(Cc1ccccc1F)NC(=O)[C@@H](NC(=O)CNC(=O)[C@H](CCC(=O)O)NC(=O)C(C)(C)NC(=O)[C@@H](N)Cc1ccc(O)cc1)[C@@H](C)O)[C@@H](C)O)[C@@H](C)CC)C(=O)N[C@@H](C)C(=O)N[C@@H](CCC(N)=O)C(=O)NC(C)(C)C(=O)N[C@@H](CCCCNC(=O)COCCOCCNC(=O)COCCOCCNC(=O)CC[C@H](NC(=O)CCCCCCCCCOc1ccc(C(=O)O)cc1)C(=O)O)C(=O)N[C@@H](Cc1ccccc1)C(=O)N[C@H](C(=O)N[C@H](CCC(=O)O)C(=O)N[C@@](C)(Cc1ccc(O)cc1)C(=O)N[C@@H](CC(C)C)C(=O)N[C@H](C(=O)N[C@@H](CCC(=O)O)C(=O)NCC(=O)NCC(=O)N1CCC[C@H]1C(=O)N[C@@H](CO)C(=O)N[C@@H](CO)C(=O)NCC(=O)N[C@@H](C)C(=O)N1CCC[C@H]1C(=O)N1CCC[C@H]1C(=O)N1CCC[C@H]1C(=O)N[C@@H](CO)C(=O)N[C@@H](CCCCNC(=O)COCCOCCNC(=O)COCCOCCNC(=O)CC[C@H](NC(=O)CCCCCCCCCOc1ccc(C(=O)O)cc1)C(=O)O)C(N)=O)[C@@H](C)CC)[C@@H](C)CC [Example 241] (H-Y[Aib]EGT[αMePhe(2-F)]TSDY[Aib]I[αMeL]LD[Orn]IAQ[Aib]K([AEEA-AEEA-γGlu-Decanoyl(10-(4-HOOC-PhO))])FI[dE][αMeY]LIEGGPSSGAPPPSK([AEEA-AEEA-γGlu-Decanoyl(10-(4-HOOC-PhO))])-NH2; N-terminus assumed)	84.9	0.0213	> 9950	> 9950	105	0.362	–	91	105
